In PMC12652692, “Synthesis and In Vitro Anticancer Evaluation of Novel Phosphonium Derivatives of Chrysin” (International Journal of Molecular Sciences, 2025):

What was measured:
Assay type in all cases: cell-based
[1] = system: 60 human cancer cell lines; test: NCI60 five-dose screen, overall mean; conditions: mean over all 60 cell lines
Protocol: (§1) Since all new conjugates (3a–h) had notable antiproliferative activities on several tumor cell lines in the course of the one-dose screening, they were subjected to a five-dose test. […] J. Mol. Sci. 2025, 26, 11063 10 of 10 S.3. NCI60 Screening A detailed description of the NCI screening procedures can also be found on the website of NCI [39], and in our previous work. S.3.1. One-Dose Screen All candidates were examined at first at a single high dose (10 μM) in the full NCI60 cell panel. The value reported for the one-dose test is growth relative to the no-drug control and relative to the time zero number of cells. This made possible the disclosure of both growth inhibition (numbers between 0 and 100) and lethality (numbers less than 0). For example, a value of 100 means no growth inhibition. A value of 20 would mean 80% growth inhibition. A value of 0 means no net growth over the course of the analysis. A value of −20 would mean 20% lethality. A value of −100 means all cells are dead. S.3.2. […] The human tumor cell lines of the cancer screening panel were grown in RPMI 1640 medium containing 5% fetal bovine serum and 2 mM l-glutamine. Characteristically, cells were injected in 96-well microtiter plates in 0.1 mL at plating densities ranging from 5000 to 40,000 cells/well, depending on the doubling time of individual cell lines. After cell inoculation, the microtiter plates were incubated at 37 °C, 5% carbon dioxide, 95% air, and 100% relative humidity for 24 hours before the addition of tested compounds. After 24 hours, 2 plates of each cell line were fixed in situ with Cl3COOH (TCA), to represent a measurement of the cell population for each cell line at the time of drug addition (tz). Tested compounds were solubilized in DMSO at 400-fold the desired final maximum test concentration and stored frozen before application. In the course of the drug addition, an aliquot of frozen concentrate was thawed and diluted to twice the desired final maximum test concentration with a complete medium containing 50 μg mL−1 gentamicin. Additional four, 10-fold or ½ log serial dilutions were produced to furnish a total of five drug concentrations plus control. Aliquots of 0.1 mL of these different drug dilutions were added to the appropriate microtiter wells already containing 0.1 mL of medium, resulting in the required final drug concentrations. Following drug addition, the plates were incubated at 37 °C, 5% carbon dioxide, 95% air, and 100% relative humidity for an additional 48 hours. For adherent cells, the test was finished by the addition of cold Cl3COOH. Cells were fixed in situ by the addition of 50 μL of cold 50% (w/v) Cl3COOH, and incubated at 4 °C for 1 hour. The supernatant was discarded, and the plates were washed with H2O (5×) and dried in air. Sulforhodamine B (SRB) solution (0.1 mL) at 0.4% (w/v) in 1% CH3COOH was added to each well, and plates were incubated at RT for 10 min. After staining, the unbound dye was removed by washing five times with 1% CH3COOH, and the plates were dried in the air. The bound stain is afterward solubilized with a 10 mM trizma base, and the absorbance is read on an automated plate reader at λ = 515 nm. Utilizing the seven absorbance measurements [time zero (tz), control growth (c), and test growth in the presence of the drug at the five concentration levels (ti)], the percentage growth was determined at each of the drug concentration levels. Growth inhibition (%) was calculated as: [(ti − tz)/(c − tz)] × 100, for concentrations where ti ≥ tz (1) [(ti − tz)/(tz)] × 100, for concentrations where ti < tz. (2) Three dose‒response parameters were calculated as follows. GI50 (growth inhibition of 50%) was determined from Equation (3), which is the drug concentration resulting in a 50% reduction in the net protein increase (as measured by SRB staining) in control cells in the course of the drug incubation. [(ti − tz)/(c − tz)] × 100 = 50 (3)

Renal Cancer panel = test: NCI60 five-dose screen, panel mean; conditions: Homo sapiens; mean over Renal Cancer panel
Protocol: as §1

Prostate Cancer panel = test: NCI60 five-dose screen, panel mean; conditions: Homo sapiens; mean over Prostate Cancer panel
Protocol: as §1

Melanoma panel = test: NCI60 five-dose screen, panel mean; conditions: Homo sapiens; mean over Melanoma panel
Protocol: as §1

O=c1cc(-c2ccccc2)oc2cc(OCCCC[P+](c3ccccc3)(c3ccccc3)c3ccccc3)cc(O)c12 [3a]
GI50 [1]: 455 nM | GI50 (Renal Cancer panel): 530 nM | GI50 (Prostate Cancer panel): 410 nM | GI50 (Melanoma panel): 300 nM

Cc1ccc([P+](CCCCOc2cc(O)c3c(=O)cc(-c4ccccc4)oc3c2)(c2ccc(C)cc2)c2ccc(C)cc2)cc1 [3b]
GI50 [1]: 322 nM | GI50 (Renal Cancer panel): 310 nM | GI50 (Prostate Cancer panel): 200 nM | GI50 (Melanoma panel): 320 nM

COc1ccc([P+](CCCCOc2cc(O)c3c(=O)cc(-c4ccccc4)oc3c2)(c2ccc(OC)cc2)c2ccc(OC)cc2)cc1 [3c]
GI50 [1]: 565 nM | GI50 (Renal Cancer panel): 1030 nM | GI50 (Prostate Cancer panel): 370 nM | GI50 (Melanoma panel): 350 nM

O=c1cc(-c2ccccc2)oc2cc(OCCCC[P+](c3ccc(F)cc3)(c3ccc(F)cc3)c3ccc(F)cc3)cc(O)c12 [3d]
GI50 [1]: 2050 nM | GI50 (Renal Cancer panel): 2100 nM | GI50 (Prostate Cancer panel): 1740 nM | GI50 (Melanoma panel): 1740 nM

O=c1cc(-c2ccccc2)oc2cc(OCCCC[P+](C3CCCCC3)(C3CCCCC3)C3CCCCC3)cc(O)c12 [3e]
GI50 [1]: 957 nM | GI50 (Renal Cancer panel): 1300 nM | GI50 (Prostate Cancer panel): 870 nM | GI50 (Melanoma panel): 550 nM

COc1c(C)cc([P+](CCCCOc2cc(O)c3c(=O)cc(-c4ccccc4)oc3c2)(c2cc(C)c(OC)c(C)c2)c2cc(C)c(OC)c(C)c2)cc1C [3f]
GI50 [1]: 312 nM | GI50 (Renal Cancer panel): 320 nM | GI50 (Prostate Cancer panel): 310 nM | GI50 (Melanoma panel): 310 nM

Cc1ccccc1[P+](CCCCOc1cc(O)c2c(=O)cc(-c3ccccc3)oc2c1)(c1ccccc1C)c1ccccc1C [3g]
GI50 [1]: 437 nM | GI50 (Renal Cancer panel): 580 nM | GI50 (Prostate Cancer panel): 340 nM | GI50 (Melanoma panel): 270 nM

O=c1cc(-c2ccccc2)oc2cc(OCCCC[P+](c3ccccc3)(c3ccccc3)c3ccccn3)cc(O)c12 [3h]
GI50 [1]: 949 nM | GI50 (Renal Cancer panel): 1350 nM | GI50 (Prostate Cancer panel): 900 nM | GI50 (Melanoma panel): 520 nM
